Source: paper PMC5643073 (ACS combinatorial science, 2017)

Experiments:
[1] = in vitro; details: human
[2] = Cytotoxicity assay; details: human, HEK293T cells

Row | SMILES | CC50 at 18 h [1] | CC50 at 18 h [2]
1 | Cc1cc(SCc2sc(-c3ccc(C(F)(F)F)cc3)nc2C)ccc1OCC(=O)O [Compound 13] | > 33 µM | –
2 | Cc1cc(SCc2sc(-c3ccc(C(F)(F)F)c(F)c3)nc2C)ccc1OCC(=O)O [Compound 31] | – | > 50 µM
